Assay results taken from patent US20070038384A1, “Devices and assays for monitoring/measuring cellular dynamics to create subject profiles from primary cells” (priority 2003, published 2007).

What was measured:
Format in all cases: cell-based
[1] = tested on: MS1 (T antigen-immortalized endothelial cells); assay: Farnesyl transferase inhibition, cell motility assay in MS1; conditions: FTI-277 10 mm, time zero and four hours, versus control
Method: (§1) Using standard protocols, MS1 (T antigen-immortalized endothelial cells, ATCC) and SVR (H-ras-overexpressing derivative of MS1, ATCC) were plated into macrowells at densities of 12×10^3 and 6×10^3 cells/cm^2, respectively, in DMEM/5% fetal bovine serum. Unattached cells were washed off after 1 hour, and the cells were replenished with fresh media. To the media was also added farnesyl transferase inhibitor (FTI-277, Calbiochem) to concentration of […]. Cells were cultured overnight under fresh media in an incubator at 37° C. and 5% CO2. At the start of experiment, the stencil/first layer was removed after first on the support to allow cell migration. At different time points (time zero and time four hours) images were taken and analyzed for effects of FTI-277 on cell motility. FIG. 21 contains the pictorial results of an assay showing farnesyl transferase inhibition in MS1 and SVR cells.

[2] = tested on: SVR (H-ras-overexpressing derivative of MS1); assay: Farnesyl transferase inhibition, cell motility assay in SVR; conditions: SVR cells, FTI-277 10 mm, time zero and four hours, versus control
Method: as §1

[3] = tested on: 769-P cells (renal carcinoma); assay: Inhibition of cell motility of renal cells via MMP inhibition, 769-P; conditions: various concentrations
Method: (§2) Two renal cell lines were used to study the effect of matrix metalloproteinase (MMP) inhibition on cell motility. Standard protocols were used to plate 100 769-P cells (renal carcinoma, purchased from ATCC) and HK-2 (proximal tubule cells from human kidney, from ATCC) in qualitative cell migration assay plate.
(§3) After allowing the cells to attach and spread for 8 hours, the stencil and the first layer were removed and MMP inhibitor (GM6001, Calbiochem) was added at various concentrations.

[4] = tested on: HK-2 (proximal tubule cells from human kidney); assay: Inhibition of cell motility of renal cells via MMP inhibition, HK-2; conditions: HK-2, various concentrations
Method: as §2, §3

[5] = tested on: Human microvasular endothelial cells from lung (HMVEC-L); assay: Microtubule experiments, cell motility/patterning assay; conditions: circular micro-orifice, versus control; agents 10 mg/ml in Example 8
Method: Alternatively, the test agent can be added before the cells have grown to confluency, i.e. the test agent is added to the cells before being patterned through the micro-orifices 300. If the test agent has no effect on cell motility, the cells will spread and achieve the shape of the micro-orifice 300. In FIGS. 16 and 17, a micro-orifice 300 is circular in shape. In the left column of FIGS. 16 and 17 are the control panel, which illustrate the cells having grown to a confluent circular pattern.
A first layer 150 having multiple orifices was applied to a support 140. The orifices ([…]) were rendered inert to the adsorption of proteins and the adhesion of cells using the standard procedures described in earlier disclosures: silanes terminated with ethylene glycol groups were reacted covalently with the surface of the PDMS devices. The stencil was washed three times with PBS, and vacuum was applied for two minutes to remove air bubbles. Human microvasular endothelial cells from lung (HMVEC-L, Clonetics/Biowhittaker), were seeded into the macro-wells of the stencil at a density of 5×10^3 cells/cm2 into the dishes in growth medium (EGM, Clonetics/Biowhittaker), and washed with fresh medium after an initial attachment period of 30 minutes to one hour. After an overnight incubation in the membranes, cells were treated with the following microtubule-disrupting agents: nocodazole (10 mg/ml), colchicine (10 mg/ml), vinblastine (10 mg/ml), or paclitaxel (10 mg/ml). Control cells were left untreated. Two different experiments were then performed. In the first experiment, cells were treated with the compounds while maintained within the macro-wells of the stencil. After two hours of treatment, the cells were imaged, the stencil was peeled off, and the cells were fixed with cold methanol (−20° C.) for ten minutes and washed three times with PBS. Immunofluorescence staining was performed using a monoclonal antibody to alpha-tubulin (1:100 dilution, DM1a, Sigma), followed by a FITC-conjugated goat anti-mouse antibody (25 mg/ml, Rockland Immunochemicals) and DAPI (3 mg/ml, Sigma) to stain the nucleus. Stained cells were mounted under a glass coverslip with Fluoromount G (Southern Biotechnology Associates) and imaged in a Zeiss fluorescence microscope.
In the second experiment, the stencil was peeled at the time of compound addition. After two hours of treatment, one set of samples was fixed and stained as described above. Another set of samples was left in the treatment compound and imaged over time, to monitor cell motility. Images were taken at 0, 2, 4, 8, and 24 hours. Cell motility was determined by taking the average diameter of the micro-regions, using ImageProPlus imaging software.

NIH-3T3 fibroblast cells = assay: Cell migration/motility assay, 3T3/TAXOL; conditions: 2 hours and 5 hours after removal of first layer, versus control cells
From the text: The cell migration/motility assay of the present invention allows one to study the effect of test agents and others both on cell motility and on cell shape. For example, cells may be patterned through micro-orifices, such as micro-orifices 300, of the first layer 150. The cells are allowed to attach to the support 140 and to grow to confluence. The walls of the micro-orifice 300 constrain the cell(s) and the cells take on the shape of the micro-orifice 300, e.g., circular. A test agent is applied through the micro-orifices 300 and is allowed to contact the cells. The first layer 150 is removed and the cells are observed. If the test agent affects cell movement, the cell will be “stuck” in place as it was patterned and may not change shape, i.e., it will remain circular if the patterning member had circular orifices. […] FIG. 15(b) is a graph of the effect of various concentrations of taxol on cell movement as performed by a cell migration/motility assay of the present invention.
Macro-wells orifices of a stencil engaged with a support were filled with PBS and a vacuum was applied for two minutes to remove air bubbles. NIH-3T3 fibroblast cells (prelabeled with green cell tracker, CMFDA, Molecular Probes) were collected in DMEM/10% bovine calf serum and plated in the macro-wells at a concentration of 2×10^4 cells/cm2. After one hour, unadhered cells were washed off with fresh medium. […]

endothelial cells = assay: Cell motility assay using endothelial cells with agonists and antagonists (FIG. 25); conditions: FIG. 25A
Method: FIG. 25 depicts a particular cell motility assay using endothelial cells and agonists and antagonists of such cells. […] In FIG. 25B, the concentration of VEGF is fixed. An antibody to VEGF is added in various concentrations. […] When an inhibitor to the VEGF receptor is added, the cells migrate at a such slower rate as depicted in FIG. 25C. […] Normally enzyme inhibition screens involve proteins and their substrates and not cells. FIG. 25D depicts enzyme inhibition screens in a cell based context.

## COC(=O)[C@H](CCSC)NC(=O)c1ccc(NC[C@@H](N)CS)cc1-c1ccccc1 [FTI-277]
[1]
  cell migration away from original starting positions: control cells are shown to have migrated further away from their original starting positions than the cells treated with FTI
[2]
  cell migration away from original starting positions: control cells are shown to have migrated further away from their original starting positions than the cells treated with FTI

## CNC(=O)[C@H](Cc1c[nH]c2ccccc12)NC(=O)[C@@H](CC(=O)NO)CC(C)C [GM6001]
[3]
  cell motility: reduces cell motility
[4]
  cell motility: no effect

## COc1cc2c(c(OC)c1OC)-c1ccc(OC)c(=O)cc1[C@@H](NC(C)=O)CC2 [colchicine]
[5]
  cellular movement / achieving circular confluent pattern: cellular movement arrested

## COC(=O)Nc1nc2ccc(C(=O)c3cccs3)cc2[nH]1 [nocodazole]
[5]
  cellular movement / achieving circular confluent pattern: cellular movement arrested

## CC(=O)O[C@H]1C(=O)[C@@]2(C)[C@H]([C@H](OC(=O)c3ccccc3)[C@]3(O)C[C@H](OC(=O)[C@H](O)[C@@H](NC(=O)c4ccccc4)c4ccccc4)C(C)=C1C3(C)C)[C@]1(OC(C)=O)CO[C@@H]1C[C@@H]2O [taxol, paclitaxel]
NIH-3T3 fibroblast cells
  cell movement away from original pattern: retained their original circular pattern
[5]
  cellular movement / achieving circular confluent pattern: cellular movement arrested

## CC[C@]1(O)C[C@@H]2CN(CCc3c([nH]c4ccccc34)[C@@](C(=O)OC)(c3cc4c(cc3OC)N(C)[C@H]3[C@@](O)(C(=O)OC)[C@H](OC(C)=O)[C@]5(CC)C=CCN6CC[C@]43[C@@H]65)C2)C1 [vinblastine]
[5]
  cellular movement / achieving circular confluent pattern: cellular movement arrested

## VEGF
Endothelial cells
  cell migration: stimulates cells to migrate
